In patent publication US8420012B2, “Use of monochlorourea to treat industrial waters” (Hercules Incorporated, priority 2009, dated 2013):
Blank lines part the entries; values can stand above or below the compound they belong to.

Key:
[1] = Stability in the presence of chlorine demand (0.1× nutrient broth), total chlorine by Hach DPD; format: physicochemical
Method: This can be seen in Table 4 below. 20 mL aliquots of a 0.1× nutrient broth were used and the active species added such that the initial concentration of each was equivalent to 5 ppm chlorine as measured by the Hach. To prepare the nutrient broth Difco Nutrient Broth (8 grams) was dissolved in 1 L of deionized water, and subsequently diluted to 0.1× of the initial concentration prior to being autoclaved at 121° C. for 15 minutes. 100 mL solutions of each of the actives were made, and the concentration was measured using standard Hach test procedures on a BetzDearborn DR 2010 Spectrophotometer. At each time point a 1:10 dilution of the solution in DI water was made and placed in the spectrophotometer cell. Hach Permachem DPD Total Chlorine Reagent was added and the cell was placed into the spectrophotometer. The ppm of Cl2 was measured at 0, 1, 3, 6, 24, and 48 hours. A fresh dilution was made at each time point, if necessary, and the bottles of solution were placed in a shaking incubator at 37° C. in between runs. Dimethyl monochlorourea is notated as DMCU. Bis-hydroxymethyl chlorourea is BHMCU.

[2] = test system: Pseudomonas aeruginosa; test: Log reduction in populations of Pseudomonas aeruginosa (Example 9); format: cell-based; conditions: P. aeruginosa, 0.3 ppm, average of two
Method: (§1) N-chloro-N,N′-bishydroxymethylurea can be synthesized in the same manner as N-chloro-N,N′-dimethylurea. The bishydroxyurea (1.0 g, 8.33 mmol) was added to methanol (60 mL) in a 250 mL round bottom flask equipped with a magnetic stir bar without cooling. Another aliquot of methanol (20 mL) was added to a small vial. T-butyl hypochlorite (0.75 mL, 6.66 mmol) was diluted in the vial with methanol, and this solution was subsequently added to the urea solution over a period of less than five minutes. The combined solution was stirred for up to another two hours. The solvent was removed in vacuo, resulting in a colorless and transparent oil that solidified upon prolonged standing. The solid was characterized by ^1H NMR which indicated it was 20-30% N-chloro-N,N′-bishydroxymethylurea.

[3] = test system: Staphylococcus warneri; test: Log reduction in populations of Staphylococcus warneri (Example 9); format: cell-based; conditions: S. warneri, 1.5 ppm, average of two
Method: as §1

[4] = Stability in the presence of chlorine demand (0.1× nutrient broth), total chlorine by Hach DPD; format: physicochemical; conditions: 72 h, 5 ppm chlorine
[5] = Free vs. total chlorine (Hach DPD) of 1000 ppm solutions in synthetic hard water; format: physicochemical; conditions: synthetic hard water 250 ppm hardness, 35° C.
Method: Differences exist between monochlorourea and sodium hypochlorite, namely, sodium hypochlorite is a free chlorine generating biocide while monochlorourea is not. Free and total chlorine are measured using the DPD reagents from the Hach Company. The test is a colorimetric test in which more intense color development results as more oxidizing chlorine is present in the sample. The rate at which the dye reacts with the oxidizing chemical depends on whether the chlorine is free or bound. Total chlorine includes both free and bound chlorine.
The rate at which the dye reacts with total chlorine is accelerated by the addition of iodide to the test. This differentiates the free and total chlorine. The iodide reacts rapidly with bound oxidizing chlorine to form iodine and chloride. The iodine, a free oxidizing halogen, reacts very rapidly with the DPD dye.
One thousand ppm (as total Cl2) solutions of monochlorourea and sodium hypochlorite were prepared in synthetic hard water with 250 ppm hardness. Total and free chlorine readings were taken at 0 minutes, 30 minutes, 2 hours, and 4 hours. Untreated hard water solutions were used as blanks. The samples were stored at 35° C.+/−2° C. with mild stirring. pH values are provided as a reference points for the conditions of the chlorine species at the various test times.
Table 3 compares duplicate samples of sodium hypochlorite and monochlorourea. Significant differences exist between the free and total chlorine values of these chemicals. The release of free chlorine from monochlorourea is an energetically unfavorable reaction. Monochlorourea is a combined chlorine species that functions to kill bacteria not as a donor of free chlorine, but as a biocide itself.
Made-up 1 Liter sample of synthetic hard water with 250 ppm hardness.
Took 100 mL aliquots and set up duplicate samples of biocides at least 1,000 ppm based on total Chlorine readings.
Monitored pH, free chlorine and total chlorines at timed intervals of—0 min, 30 min, 2 hours, and 4 hours,
Monitored un-treated (blank) hard water at time 0 to serve as baseline.
Between sampling stored all samples in 35° C.+/−2° C. Heater/shaker with mild stirring.

[6] = test system: Pseudomonas aeruginosa; test: Viable cell counts of P. aeruginosa in PBS after 60 minutes exposure to biocide (Example 6); format: cell-based; conditions: average of three
Method: The efficacy of monochlorourea as a biocide, as synthesized in Example 1, was tested against the bacterium Pseudomonas aeruginosa. The Hach DPD chlorine test (Hach Company, Loveland, Colo.) was used to measure the total available chlorine concentrations of each biocide tested. Concentrations are reported in units of milligrams per liter as Cl2. P. aeruginosa was grown overnight in Trypticase Soy Broth at 37° C. The culture was split into aliquots of equal volume, suspended in physiologically buffered saline (PBS). In this example, the cultures were exposed to […], 5.0 mg/L, 10.0 mg/L, and 15.0 mg/L of biocide for 60 minutes. The cultures were then evaluated by measuring viable cell counts after exposure to the biocides.

[7] = test system: Pseudomonas aeruginosa; test: Log10 reduction of viable P. aeruginosa in PBS after exposure to biocide (Example 8); format: cell-based; conditions: average of three
Method: The efficacy of dimethyl monochlorourea (DMCU) as a biocide, as synthesized in Example 5, was tested against the bacterium Pseudomonas aeruginosa. The Hach DPD chlorine test (Hach Company, Loveland, Colo.) was used to measure the total available chlorine concentrations of each biocide tested. Concentrations are reported in units of milligrams per liter as Cl2. P. aeruginosa was grown overnight in Trypticase Soy Broth at 37° C. The culture was split into aliquots of equal volume and suspended in physiologically buffered saline (PBS). […] The cultures were then evaluated by measuring viable cell counts after exposure to the biocides.

[8] = test system: P. aeruginosa; test: Viability of P. aeruginosa inoculated in paper mill process water, plated after 60 minutes; format: cell-based, Pseudomonas aeruginosa; conditions: papermill process water, average of three
Method: Paper mill process water samples were collected from a paper mill producing super calendered paper Samples were inoculated with P. aeruginosa, and then dosed with monochlorourea and sodium hypochlorite and plated after 60 minutes.

[9] = Effect of pH on stability of monochlorourea in D2O by 13C NMR; format: physicochemical
From the text: The effect of pH on the stability of monochlorourea was significant. Carbon 13 labeled urea was used to examine the stability of the products overnight in D2O. […] However, completely acidifying all the solutions to a pH of 2.5 did have a significant effect on both the yield and the stability of the product.

[10] = Time = 30 min, listed as Bleach-1
[11] = Time = 30 min, listed as Bleach-2
[12] = Time = 2 hours, listed as Bleach-1
[13] = Time = 2 hours, listed as Bleach-2
[14] = Time = 4 hours, listed as Bleach-1
[15] = Time = 4 hours, listed as Bleach-2
[16] = Time = 2 hours, listed as MCU-1
[17] = Time = 2 hours, listed as MCU-2
[18] = Time = 4 hours, listed as MCU-1
[19] = Time = 4 hours, listed as MCU-2

SMILES: O=C(NCO)N(Cl)CO [BHMCU, N-chloro-N,N′-bishydroxymethylurea]
- Stability: total chlorine remaining relative to initial ([1]; 0 h, 5 ppm chlorine): 100%
- Stability: total chlorine remaining relative to initial ([1]; 1 h, 5 ppm chlorine): 70%
- Stability: total chlorine remaining relative to initial ([1]; 3 h, 5 ppm chlorine): 49%
- Stability: total chlorine remaining relative to initial ([1]; 6 h, 5 ppm chlorine): 38%
- Log Reduction ([2]; 1 hr exposure): 3.63
- Log Reduction ([2]; 2 hr exposure): 6.98
- Log Reduction ([3]; 1 hr exposure): 6.37
- Log Reduction ([3]; 2 hr exposure): 6.52
- Stability: total chlorine remaining relative to initial [4]: 3%

SMILES: [Na+].[O-]Cl [NaOCl, Sodium Hypochlorite]
- Free Cl ([5]; Time = 0, listed as Bleach-1): 900 ppm
- Tot Cl ([5]; Time = 0, listed as Bleach-1): 950 ppm
- Free Cl ([5]; Time = 0, listed as Bleach-2): 950 ppm
- Tot Cl ([5]; Time = 0, listed as Bleach-2): 1060 ppm
- Free Cl [5, 10]: 860 ppm
- Tot Cl [5, 10]: 890 ppm
- Free Cl [5, 11]: 880 ppm
- Tot Cl [5, 11]: 1020 ppm
- Free Cl [5, 12]: 810 ppm
- Tot Cl [5, 12]: 920 ppm
- Free Cl [5, 13]: 840 ppm
- Tot Cl [5, 13]: 1010 ppm
- Free Cl [5, 14]: 840 ppm
- Tot Cl [5, 14]: 940 ppm
- Free Cl [5, 15]: 950 ppm
- Tot Cl [5, 15]: 1040 ppm
- Stability: total chlorine remaining relative to initial ([1]; 0 hr, 0.1× nutrient broth, initial 5 ppm chlorine, 37° C.): 100%
- Stability: total chlorine remaining relative to initial ([1]; 3 hrs, 0.1× nutrient broth, initial 5 ppm chlorine, 37° C.): 22%
- Stability: total chlorine remaining relative to initial ([1]; 6 hrs, 0.1× nutrient broth, initial 5 ppm chlorine, 37° C.): 6%
- Stability: total chlorine remaining relative to initial ([1]; 24 hrs, 0.1× nutrient broth, initial 5 ppm chlorine, 37° C.): 2%
- Stability: total chlorine remaining relative to initial ([1]; 48 hrs, 0.1× nutrient broth, initial 5 ppm chlorine, 37° C.): 1%
- log10 of viable cfu/mL remaining after exposure ([6]; 5.0 mg/L as Cl2, 60 minutes): 9.7 log10 cfu/mL
- log10 of viable cfu/mL remaining after exposure ([6]; 10.0 mg/L as Cl2, 60 minutes): 9.1 log10 cfu/mL
- log10 of viable cfu/mL remaining after exposure ([6]; 15.0 mg/L as Cl2, 60 minutes): 4.4 log10 cfu/mL
- log10 reduction of viable cfu/mL (LR) ([7]; 1 mg/L): 5.3 log10
- log10 reduction of viable cfu/mL (LR) ([7]; 3 mg/L): 5.4 log10
- log10 reduction of viable cfu/mL (LR) ([7]; 5 mg/L): 6.7 log10
- log10 of viable cfu/mL ([8]; 1.0 mg/l): 9.9 log10 cfu/mL
- log10 of viable cfu/mL ([8]; 3.0 mg/l): 9.8 log10 cfu/mL
- log10 of viable cfu/mL ([8]; 5.0 mg/l): 8.7 log10 cfu/mL
- log10 of viable cfu/mL ([8]; 10.0 mg/l): 4.5 log10 cfu/mL

- Free Cl ([5]; Time = 0): 0 ppm
- Tot Cl ([5]; Time = 0, listed as MCU-1): 1620 ppm
- Tot Cl ([5]; Time = 0, listed as MCU-2): 1190 ppm
- Free Cl ([5]; Time = 30 min, listed as MCU-1): 10 ppm
- Tot Cl ([5]; Time = 30 min, listed as MCU-1): 1500 ppm
- Free Cl ([5]; Time = 30 min, listed as MCU-2): 20 ppm
- Tot Cl ([5]; Time = 30 min, listed as MCU-2): 1210 ppm
- Free Cl [5, 16]: 10 ppm
- Tot Cl [5, 16]: 1490 ppm
- Free Cl [5, 17]: 30 ppm
- Tot Cl [5, 17]: 1120 ppm
- Free Cl [5, 18]: 10 ppm
- Tot Cl [5, 18]: 1230 ppm
- Free Cl [5, 19]: 20 ppm
- Tot Cl [5, 19]: 1000 ppm
SMILES: NC(=O)NCl [MCU, N-chlorourea]
- log10 of viable cfu/mL remaining after exposure ([6]; 5.0 mg/L as Cl2, 60 minutes): 4.0 log10 cfu/mL
- log10 of viable cfu/mL remaining after exposure ([6]; 10.0 mg/L as Cl2, 60 minutes): 2.7 log10 cfu/mL
- log10 of viable cfu/mL remaining after exposure ([6]; 15.0 mg/L as Cl2, 60 minutes): 2.3 log10 cfu/mL
- log10 of viable cfu/mL ([8]; 1.0 mg/l): 9.9 log10 cfu/mL
- log10 of viable cfu/mL ([8]; 3.0 mg/l): 4.3 log10 cfu/mL
- log10 of viable cfu/mL ([8]; 5.0 mg/l): 3.2 log10 cfu/mL
- log10 of viable cfu/mL ([8]; 10.0 mg/l): 3.1 log10 cfu/mL
- Stability by 13C NMR ([9]; acidic conditions (pH of 2.5), overnight): no indication by ^13C NMR of any decomposition
- Stability by 13C NMR ([9]; basic conditions, 12 hours): no peak in the ^13C NMR from chlorourea could be detected
